# Read-outs that look alike come from different tables or passages of the source. *1 amine or outer side, *2 acyl side, *3 side chain or, on linkers, in order; H or OH if unused. Where a SMILES comes first, the peptide text is derived from it. Bridges are numbered along the chain shown (N, C = ends). [ ]: non-standard residue; d: D form. The star is where a group is joined. hTyr(3S-OH,4S-OH,3'-OSO3H) = N[C@H](C(=O)O)[C@H](O)[C@@H](O)c1ccc(O)c(OS(=O)(=O)O)c1; Orn(4R-OH,5R-OH) = O=C([C@H](C[C@@H](O)[C@@H](O)N[*:3])N[*:1])[*:2]; Pro(3S-OH,4S-Me) = C[C@H]1CN[C@H](C(=O)O)[C@H]1O; X1 = CCCCCOc1ccc(-c2cc(-c3ccc(C(=O)*)cc3)no2)cc1; Gln(3R-OH) = NC(=O)C[C@@H](O)[C@H](N)C(=O)O; Hyp = O=C(O)[C@@H]1C[C@@H](O)CN1
# Experiments:
# cytochrome P450 [1] = assay: Metabolism of luciferin derivatives in cultured silkworm midgut (P450-Glo, luminometer); type: in vitro ADME, Bombyx mori (silkworm); settings: silkworm midgut incubated with luciferin substrate at 30 °C
# [2] = Pharmacokinetics of antibiotics in silkworm hemolymph after injection (HPLC); settings: for HPLC peak area in hemolymph: raw data of Fig. 1; for Time-course of the decrease in concentration in hemolymph (in words): after administration into hemolymph, alpha and beta phase; for Time-course of the decrease in concentration in hemolymph (in words) / Cltot (total body clearance): two-compartment model; for half-life: in vivo; for Cltot (total body clearance): silkworm, injection into hemolymph, dose per compound 10-50 mg/kg
# Description: Antibiotics were injected into silkworm hemolymph and hemolymph was collected by cutting the legs at the indicated time.
# Antibiotics dissolved in saline were injected into the hemolymph of 5th instar silkworms using a 1-mL syringe attached to a 27 G needle. Hemolymph was harvested from abdominal appendages by cutting them with scissors at the indicated time-points after administration, and mixed with an equal volume of acetone. Samples were centrifuged at 15,000 rpm for 5 min at 4 °C, and the supernatants were evaporated with a centrifuge evaporator[18]. The dried materials were dissolved in 50% methanol and filtrated through a 0.45-µm filter. […] The amount of antibiotics in the sample was quantified from the peak area of the chromatogram.
# [3] = design: method as in PMID 15256761; settings: rat, dose 1 mg/kg; cited from earlier work
# cytochrome P450 [4] = assay: Decay of cytochrome P450 substrates in in vitro culture of the silkworm midgut (HPLC); settings: for HPLC peak area of substrate, Sample 1 / HPLC peak area of substrate, Sample 2: silkworm (Bombyx mori); for HPLC peak area of substrate: midgut culture, raw data of Fig. 3
# Description: Silkworm midgut was incubated in medium with cytochrome P450 substrates at 30 °C. The samples were collected, extracted by acetone, and evaporated. The amounts of substrates were determined by HPLC analysis.
# Silkworms (5th instar, 5 days) were dissected in a buffer (10 mM HEPES/NaOH, 0.9% NaCl, pH 7.9), and isolated organs were incubated with 3 mL TC-100 medium containing 10% fetal bovine serum, 50 µg/ml gentamicin, and substrates for the metabolic reaction. Whole samples (medium and organ) were homogenized and extracted by equal volumes of acetone followed by evaporation. Extracted samples were dissolved in 50 mM NaOAc buffer and treated with beta-glucosidase to measure the fluorescence of metabolized 7-ethoxycoumarin[6]. […] Samples for HPLC were dissolved in 50% methanol. HPLC analysis was performed using a PEGASIL ODS SP column (φ4.5 mm × 250 mm) with isocratic elution at a flow rate of 1 ml/min.
# [5] = mammal, dose 8 mg/kg; cited from earlier work
# cytochrome P450 [6] = assay: 7-ethoxycoumarin deethylation activity in silkworm tissue culture (fluorometry); type: in vitro ADME, Bombyx mori (silkworm); settings: midgut incubated with 7-ethoxycoumarin and cimetidine at 30 °C
# Description: Figure 2 Tissue specificity of 7-ethoxycoumarin deethylation activity in silkworm. (A) The midgut, fat body, silk gland, and Malpighian tubule were extirpated from silkworms and incubated in medium containing 7-ethoxycoumarin at 30 °C. Medium was collected, extracted by acetone, and evaporated. Samples […] in 50 mM NaOAc buffer (pH 6.0) were treated with beta-glucosidase. The amount of 7-hydroxycomarin, a metabolite, was determined by fluorometry. (B) Inhibition of 7-ethoxycoumarin deethylation by cimetidine in the silkworm midgut. Silkworm midgut was incubated in medium containing 7-ethoxycoumarin and cimetidine at 30 °C. Samples were collected, extracted by acetone, and treated with beta-glucosidase. The amount of 7-hydroxycomarin was determined by fluorometry.
# Samples for HPLC were dissolved in 50% methanol.
smiles,measurement,setting,value
O=C(O)C1CSC(c2nc3ccc(OCc4c(F)c(F)c(F)c(F)c4F)cc3s2)=N1 (stereo not shown) [Luciferin-PFBE],Production of luciferin (RFU/organ),cytochrome P450 [1],"229,000 RFU/organ"
"CCCCCOc1ccc(-c2cc(-c3ccc(C(=O)N[C@H]4C[C@@H](O)[C@@H](O)NC(=O)[C@@H]5[C@@H](O)[C@@H](C)CN5C(=O)[C@H]([C@H](O)CC(N)=O)NC(=O)[C@H]([C@H](O)[C@@H](O)c5ccc(O)c(OS(=O)(=O)O)c5)NC(=O)[C@@H]5C[C@@H](O)CN5C(=O)[C@H]([C@@H](C)O)NC4=O)cc3)no2)cc1 [Micafungin] (X1-[Orn(4R-OH,5R-OH)]T[Hyp][hTyr(3S-OH,4S-OH,3'-OSO3H)][Gln(3R-OH)][Pro(3S-OH,4S-Me)]; lactam 1-C)",HPLC peak area in hemolymph,[2]; 1 min after injection,2078182
same,HPLC peak area in hemolymph,[2]; 5 min after injection,1273864
same,HPLC peak area in hemolymph,[2]; 20 min after injection,874882
same,HPLC peak area in hemolymph,[2]; 45 min after injection,1057083
same,HPLC peak area in hemolymph,[2]; 60 min after injection,1430059
same,HPLC peak area in hemolymph,[2]; 75 min after injection,1093500
same,HPLC peak area in hemolymph,[2]; 90 min after injection,1117482
same,HPLC peak area in hemolymph,[2]; 120 min after injection,1017294
same,HPLC peak area in hemolymph,[2]; 150 min after injection,1043908
same,HPLC peak area in hemolymph,[2]; 180 min after injection,936752
same,HPLC peak area in hemolymph,[2]; 240 min after injection,1002362
same,HPLC peak area in hemolymph,[2]; 360 min after injection,970304
same,Time-course of the decrease in concentration in hemolymph (in words),[2],biphasic
same,half-life,[2],12 h
same,Cltot (total body clearance),[2],0.03 mL/g/h
same,Cltot,[3],0.07 mL/g/h
same,Vdss,[3],0.4 mL/g
same,t1/2,[3],5.0 h
COc1ccc2[nH]c([S+]([O-])Cc3ncc(C)c(OC)c3C)nc2c1 (stereo not shown) [Omeprazole],Metabolism in the silkworm midgut (in words),cytochrome P450 [4],metabolized in the silkworm midgut
same,"HPLC peak area of substrate, Sample 1",cytochrome P450 [4]; 0 h,141638
same,"HPLC peak area of substrate, Sample 2",cytochrome P450 [4]; 0 h,142171
same,"HPLC peak area of substrate, Sample 1",cytochrome P450 [4]; 1 h,117549
same,"HPLC peak area of substrate, Sample 2",cytochrome P450 [4]; 1 h,116381
same,"HPLC peak area of substrate, Sample 1",cytochrome P450 [4]; 4 h,57706
same,"HPLC peak area of substrate, Sample 2",cytochrome P450 [4]; 4 h,60668
same,"HPLC peak area of substrate, Sample 1",cytochrome P450 [4]; 20 h,8164
same,"HPLC peak area of substrate, Sample 2",cytochrome P450 [4]; 20 h,1815
C[C@]12CC[C@H]3[C@@H](CCC4=CC(=O)CC[C@@]43C)[C@@H]1CC[C@@H]2O [Testosterone],Metabolism in the silkworm midgut (in words),"cytochrome P450 [4]; in vitro organ culture, up to 20 h incubation",metabolized in the silkworm midgut
same,HPLC peak area of substrate,cytochrome P450 [4]; 0 h,3160000
same,HPLC peak area of substrate,cytochrome P450 [4]; 1 h,1620000
same,HPLC peak area of substrate,cytochrome P450 [4]; 4 h,1110000
same,HPLC peak area of substrate,cytochrome P450 [4]; 20 h,1210000
CN[C@H](CC(C)C)C(=O)N[C@H]1C(=O)N[C@@H](CC(N)=O)C(=O)N[C@H]2C(=O)N[C@H]3C(=O)N[C@H](C(=O)N[C@H](C(=O)O)c4cc(O)cc(O)c4-c4cc3ccc4O)[C@H](O)c3ccc(c(Cl)c3)Oc3cc2cc(c3O[C@@H]2O[C@H](CO)[C@@H](O)[C@H](O)[C@H]2O[C@H]2C[C@](C)(N)[C@H](O)[C@H](C)O2)Oc2ccc(cc2Cl)[C@H]1O [Vancomycin],Cltot,[5],0.08 mL/g/h
same,Vdss,[5],0.6 mL/g
same,t1/2,[5],2.6 h
same,HPLC peak area in hemolymph,[2]; 0 min after injection,6413329
same,HPLC peak area in hemolymph,[2]; 1 min after injection,7258474
same,HPLC peak area in hemolymph,[2]; 5 min after injection,5965159
same,HPLC peak area in hemolymph,[2]; 10 min after injection,4477743
same,HPLC peak area in hemolymph,[2]; 15 min after injection,4233708
same,HPLC peak area in hemolymph,[2]; 30 min after injection,5070602
same,HPLC peak area in hemolymph,[2]; 45 min after injection,4520231
same,HPLC peak area in hemolymph,[2]; 60 min after injection,4399183
same,HPLC peak area in hemolymph,[2]; 90 min after injection,3764336
same,HPLC peak area in hemolymph,[2]; 120 min after injection,4979100
same,HPLC peak area in hemolymph,[2]; 180 min after injection,4348972
same,HPLC peak area in hemolymph,[2]; 240 min after injection,4148058
same,Time-course of the decrease in concentration in hemolymph (in words),[2],biphasic
same,half-life,[2],13 h
same,Cltot (total body clearance),[2],0.03 mL/g/h
CN/C(=N/CCSCc1nc[nH]c1C)NC#N [cimetidine],Inhibition of 7-ethoxycoumarin deethylation in the silkworm midgut (in words),cytochrome P450 [6],inhibited this reaction in the midgut

# From paper PMC6602958, “Pharmacokinetics of anti-infectious reagents in silkworms” (Scientific Reports, 2019)
